Reference: patent US10111874B2, “Combination therapies for treatment of cancer” (Araxes Pharma LLC, priority 2014, dated 2018)

These molecules were tested against T1, KRAS G12C 1-169, his-tagged protein, GDP-loaded (Homo sapiens, UniProt P01116, G12C) (assay: Biochemical assay: covalent binding to KRAS G12C analyzed by mass spectrometry). Settings: compounds 247-342, measured at 30 min.
T1 construct: KRAS G12C 1-169, his-tagged protein, GDP-loaded
Protocol: Compounds were tested for activity as follows:
Compounds were diluted to 50× final test concentration in DMSO in 96-well storage plates. […] Reactions were mixed carefully and thoroughly by pipetting up/down with a 200 μl multi-channel pipettor. […] 5 μl of 2% formic acid (Fisher cat#A117) in DI H2O was then added to each well followed by mixing with a pipette. The plate was then resealed with aluminum seal and stored on dry ice until analyzed as described below.
The above described assays were analyzed by mass spectrometry according to the following procedure:
The MS instrument is set to positive polarity, 2 GHz resolution, and low mass (1700) mode and allowed to equilibrate for 30 minutes. The instrument is then calibrated, switched to acquisition mode and the appropriate method loaded.
After another 30 minute equilibration time, a blank batch (i.e., buffer) is run to ensure equipment is operating properly. The samples are thawed at 37° C. for 10 minutes, briefly centrifuged, and transfer to the bench top. Wells A1 and H12 are spiked with 1 μL 500 μM internal standard peptide, and the plates centrifuged at 2000×g for 5 minutes. The method is then run and masses of each individual well recorded.
The masses (for which integration data is desired) for each well are pasted into the platemap and exported from the analysis. Masses for the internal standards are exported as well. The data at 50 ppm is extracted for the +19 charge state, and identity of well A1 is assigned using the internal standard spike and integrated. Peak data is exported as a TOF list and the above steps are repeated individually, for the +20, 21, 22, 23, 24, and 25 charge states.

Row | Molecule | Binding %
1 | C=CC(=O)N1CCN(c2ncnc3c(F)c(-c4ccc(F)cc4F)c(F)cc23)CC1 [Compound 296] | + (+indicates binding activity from 5% to 25%)
2 | C=CC(=O)N1CCN(c2ncnc3c(F)c(-c4c(C)ccc5[nH]ncc45)c(F)cc23)CC1 [Compound 297, 1-(4-(6,8-difluoro-7-(5-methyl-1H-indazol-4-yl)quinazolin-4-yl)piperazin-1-yl)prop-2-en-1-one] | + (+indicates binding activity from 5% to 25%)
3 | C=CC(=O)N1CCN(c2ncnc3c(F)c(-c4c(C)ccc5cn[nH]c45)c(F)cc23)CC1 [Compound 298, 1-(4-(6,8-difluoro-7-(6-methyl-1H-indazol-7-yl)-quinazolin-4-yl)piperazin-1-yl)prop-2-en-1-one] | ++ (++indicates binding activity greater than 25% and up to 50%)
4 | C=CC(=O)N1CCN(c2ncnc3c(F)c(-c4c(O)cccc4F)c(F)cc23)CC1 [Compound 299, 1-(4-(6,8-difluoro-7-(2-fluoro-6-hydroxyphenyl)quinazolin-4-yl)piperazin-1-yl)prop-2-en-1-one] | + (+indicates binding activity from 5% to 25%)
5 | C=CC(=O)N1CCN(c2nc(OC3CCOC3)nc3cc(-c4c(C)ccc5[nH]ncc45)c(Cl)cc23)CC1 (centres unmarked) [Compound 300, 1-(4-(6-chloro-7-(5-methyl-1H-indazol-4-yl)-2-(tetrahydrofuran-3-yloxy)quinazolin-4-yl)piperazin-1-yl)prop-2-en-1-one] | ++ (++indicates binding activity greater than 25% and up to 50%)
6 | CN(C)C/C=C/C(=O)N1CCN(c2ncnc3c(F)c(-c4c(O)cccc4F)c(Cl)cc23)CC1 [Compound 301, (E)-1-(4-(6-chloro-8-fluoro-7-(2-fluoro-6-hydroxyphenyl)quinazolin-4-yl)piperazin-1-yl)-4-(dimethylamino)but-2-en-1-one] | ++ (++indicates binding activity greater than 25% and up to 50%)
7 | C=CC(=O)N1CCN(c2ncnc3c(Cl)c(-c4c(O)ccc5ccccc45)c(Cl)cc23)CC1 [Compound 303, 1-(4-(6,8-dichloro-7-(2-hydroxynaphthalen-1-yl)quinazolin-4-yl)piperazin-1-yl)prop-2-en-1-one] | ++ (++indicates binding activity greater than 25% and up to 50%)
8 | C=CC(=O)N1CCN(c2nc(-c3cn[nH]c3)nc3c(F)c(-c4c(C)ccc5[nH]ncc45)c(Cl)cc23)CC1 [Compound 304, 1-(4-(6-chloro-8-fluoro-7-(5-methyl-1H-indazol-4-yl)-2-(1H-pyrazol-4-yl)quinazolin-4-yl)piperazin-1-yl)prop-2-en-1-one] | ++ (++indicates binding activity greater than 25% and up to 50%)
9 | C=CC(=O)N1CCN(c2cnnc3cc(-c4c(C)ccc5[nH]ncc45)c(C(F)(F)F)cc23)CC1 [Compound 305, 1-(4-(7-(5-methyl-1H-indazol-4-yl)-6-(trifluoromethyl)cinnolin-4-yl)piperazin-1-yl)prop-2-en-1-one] | ++ (++indicates binding activity greater than 25% and up to 50%)
10 | C=CC(=O)N1CCN(c2ncnc3c(OC)c(-c4ccc(F)cc4F)c(Cl)cc23)CC1 [Compound 306, 1-(4-(6-chloro-7-(2,4-difluorophenyl)-8-methoxyquinazolin-4-yl)piperazin-1-yl)prop-2-en-1-one] | ++ (++indicates binding activity greater than 25% and up to 50%)
11 | C=CC(=O)N1CCN(c2ncnc3c(F)c(-c4cc(C(F)F)ccc4F)c(Cl)cc23)CC1 [Compound 307, 1-(4-(6-chloro-7-(5-(difluoromethyl)-2-fluorophenyl)-8-fluoroquinazolin-4-yl)piperazin-1-yl)prop-2-en-1-one] | ++ (++indicates binding activity greater than 25% and up to 50%)
12 | C=CC(=O)N1CCN(c2c(C#N)cnc3c(F)c(-c4c(C)ccc5cn[nH]c45)c(Cl)cc23)CC1 [Compound 308, 4-(4-acryloylpiperazin-1-yl)-6-chloro-8-fluoro-7-(6-methyl-1H-indazol-7-yl)quinoline-3-carbonitrile] | +++ (+++indicates binding activity greater than 50% and up to 75%)
13 | C=CC(=O)N1CCN(c2nc(-c3ccn[nH]3)nc3c(F)c(-c4c(C)ccc5[nH]ncc45)c(Cl)cc23)CC1 [Compound 309, 1-(4-(6-chloro-8-fluoro-7-(5-methyl-1H-indazol-4-yl)-2-(1H-pyrazol-5-yl)quinazolin-4-yl)piperazin-1-yl)prop-2-en-1-one] | +++ (+++indicates binding activity greater than 50% and up to 75%)
14 | CN(C)C/C=C/C(=O)N1CCN(c2c(C#N)cnc3c(F)c(-c4cc(O)cc5ccccc45)c(Cl)cc23)CC1 [Compound 310, (E)-6-chloro-4-(4-(4-(dimethylamino)but-2-enoyl)piperazin-1-yl)-8-fluoro-7-(3-hydroxynaphthalen-1-yl)quinoline-3-carbonitrile] | ++++ (++++indicates binding activity greater than 75%)
15 | Cc1ccc2[nH]ncc2c1-c1c(Cl)cc2c(N3CCN(C(=O)/C=C/CN)CC3)ncnc2c1F [Compound 311, (E)-4-amino-1-(4-(6-chloro-8-fluoro-7-(5-methyl-1H-indazol-4-yl)quinazolin-4-yl)piperazin-1-yl)but-2-en-1-one] | +++ (+++indicates binding activity greater than 50% and up to 75%)
16 | C=CC(=O)N1CCN(c2nc(NC)nc3cc(-c4c(C)ccc5[nH]ncc45)c(Cl)cc23)CC1 [Compound 312, 1-(4-(6-chloro-7-(5-methyl-1H-indazol-4-yl)-2-(methylamino)quinazolin-4-yl)piperazin-1-yl)prop-2-en-1-one] | ++++ (++++indicates binding activity greater than 75%)
17 | C=CC(=O)N1CCN(c2ncnc3c(OC)c(-c4c(O)cccc4F)c(Cl)cc23)CC1 [Compound 313, 1-(4-(6-chloro-7-(2-fluoro-6-hydroxyphenyl)-8-methoxyquinazolin-4-yl)piperazin-1-yl)prop-2-en-1-one] | +++ (+++indicates binding activity greater than 50% and up to 75%)
18 | C=CC(=O)N1CCN(c2nc(OCCN(C)C)nc3cc(-c4c(C)ccc5[nH]ncc45)c(Cl)cc23)CC1 [Compound 314, 1-(4-(6-chloro-2-(2-(dimethylamino)ethoxy)-7-(5-methyl-1H-indazol-4-yl)quinazolin-4-yl)piperazin-1-yl)prop-2-en-1-one] | ++++ (++++indicates binding activity greater than 75%)
19 | Cc1ccc2[nH]ncc2c1-c1c(Cl)cc2c(N3CCN(C(=O)/C=C/CO)CC3)ncnc2c1F [Compound 315, (E)-1-(4-(6-chloro-8-fluoro-7-(5-methyl-1H-indazol-4-yl)quinazolin-4-yl)piperazin-1-yl)-4-hydroxybut-2-en-1-one] | + (+indicates binding activity from 5% to 25%)
20 | C=CC(=O)N1CCN(c2nc(OC3CCCOC3)nc3cc(-c4c(C)ccc5[nH]ncc45)c(Cl)cc23)CC1 (centres unmarked) [Compound 316, 1-(4-(6-chloro-7-(5-methyl-1H-indazol-4-yl)-2-(tetrahydro-2H-pyran-3-yloxy)quinazolin-4-yl)piperazin-1-yl)prop-2-en-1-one] | ++ (++indicates binding activity greater than 25% and up to 50%)
21 | C=CC(=O)N1CCN(c2ncnc3cc(-c4c(O)cccc4F)c(Cl)c(C(F)(F)F)c23)CC1 [Compound 318, 1-(4-(6-chloro-7-(2-fluoro-6-hydroxyphenyl)-5-(trifluoromethyl)quinazolin-4-yl)piperazin-1-yl)prop-2-en-1-one] | + (+indicates binding activity from 5% to 25%)
22 | C=CC(=O)N1CCN(c2nc(N)nc3cc(-c4c(C)ccc5[nH]ncc45)c(Cl)cc23)CC1 [Compound 319, 1-(4-(2-amino-6-chloro-7-(5-methyl-1H-indazol-4-yl)quinazolin-4-yl)piperazin-1-yl)prop-2-en-1-one] | ++ (++indicates binding activity greater than 25% and up to 50%)
23 | C=CC(=O)N1CCN(c2ncnc3c(F)c(-c4c(C)ccc5[nH]ncc45)c(Cl)cc23)CC1CO (centres unmarked) [Compound 320, 1-(4-(6-chloro-8-fluoro-7-(5-methyl-1H-indazol-4-yl)quinazolin-4-yl)-2-(hydroxymethyl)piperazin-1-yl)prop-2-en-1-one] | ++ (++indicates binding activity greater than 25% and up to 50%)
24 | C=CC(=O)N1CCN(c2ncnc3c(O)c(-c4ccc(F)cc4F)c(Cl)cc23)CC1 [Compound 321, 1-(4-(6-chloro-7-(2,4-difluorophenyl)-8-hydroxyquinazolin-4-yl)piperazin-1-yl)prop-2-en-1-one] | + (+indicates binding activity from 5% to 25%)
25 | C=CC(=O)N1CCN(c2nc(Nc3cnn(C)c3)nc3c(F)c(-c4c(C)ccc5[nH]ncc45)c(Cl)cc23)CC1 [Compound 322, 1-(4-(6-chloro-8-fluoro-7-(5-methyl-1H-indazol-4-yl)-2-(1-methyl-1H-pyrazol-4-ylamino)quinazolin-4-yl)piperazin-1-yl)prop-2-en-1-one] | +++ (+++indicates binding activity greater than 50% and up to 75%)

Same assay, conditions: determined at 24 hrs

Row | Molecule | Binding %
26 | 1-(4-(2′,6-dichloro-4-methoxybiphenylcarbonyl)piperazin-1-yl)prop-2-en-1-one [III-1] | + (+indicates binding activity from 5% to 10%)
